Data taken from patent US20110008802A1, “TNFalpha GENE EXPRESSION AS A BIOMARKER OF SENSITIVITY TO ANTAGONISTS OF INHIBITOR OF APOPTOSIS PROTEINS” (TETRALOGIC PHARMACEUTICALS CORP., priority 2007, published 2011).

Legend:
SKOV3 cells = assay: MTT assay of compound C with or without TNFα blocking antibody, SKOV3 cells; type: cell-based, human; conditions: compound C+anti-TNFα antibody (MAB610) vs compound C alone, 72 hrs
Procedure: (§1) We have previously observed that our compounds promote rapid cIAP-1 degradation. Therefore, we hypothesized that degradation of cIAP-1 may result in autocrine activation of the death-receptor pathway by TNFα. To test this, we used TNFα blocking antibody in an MTT assay. Briefly, indicated ovarian cancer cell lines were seeded into 96-well cell culture plates at a density of 5,000 cells per well. The next day, anti-TNFα antibody (MAB610, R&D Systems, Minneapolis, Minn.) was added to cells at a final concentration of 10 µg/mL and allowed to incubate for 1 hr at 37° C., 5% CO2. Following incubation, a range of concentrations of the cIAP antagonist compound C was added to cells. Cells were incubated in the presence of compound C+anti-TNFα antibody or in the presence of compound C alone as a control for an additional 72 hrs. Following 72 hr incubation, MTT reagent (3-(4,5-dimethylthiazolyl-2)-2,5-diphenyltetrazolium bromide; SIGMA, St. Louis, Mo.) was added to all wells at a final concentration of 1 mg/mL and allowed to incubate for 2 hrs at 37° C., 5% CO2. Following a 2 hr incubation, all media was removed from wells and […] DMSO was added to solubilize formazan crystals. After a brief incubation at room temp on a microplate shaker, absorbance was measured at 570 nm using a Victor^2V fluorescent microplate reader (Perkin-Elmer, Turku, Finland). […]

OVCAR-8 cells = assay: MTT assay of compound C with or without TNFα blocking antibody, OVCAR-8 cells; type: cell-based, human; conditions: compound C+anti-TNFα antibody (MAB610) vs compound C alone, 72 hrs
Procedure: as §1

In the case of `CN[C@@H](C)C(=O)N[C@H](C(=O)N1C[C@@H](O)C[C@H]1CC1=C(C2=C(C[C@@H]3C[C@H](O)CN3C(=O)[C@@H](NC(=O)[C@H](C)NC)[C@@H](C)OC)c3ccc(F)cc3C2)Cc2cc(F)ccc21)[C@@H](C)OC` [compound C], the “effect of anti-TNFα antibody on cIAP antagonist induced cytotoxicity (CC50 curve, FIG. 2)” value (SKOV3 cells) is reported as “abrogates cIAP antagonist induced cytotoxicity” and the “effect of anti-TNFα antibody on cIAP antagonist induced cytotoxicity (CC50 curve, FIG. 1)” value (OVCAR-8 cells) is reported as “abrogates cIAP antagonist induced cytotoxicity”.
